Experimental data from patent publication US20040171594A1, “Use of bis-acid(5-androsten-17-one-3beta-hydroxyl)diester for manufacture pharmaceuticals” (priority 2001, published 2004).
Marks after values point to notes of the source that are not given here.

Legend:
[1] = tested on: arrhythmia of rats induced by BaCl2; test: Arrhythmia of rats induced by BaCl2; assay type: in vivo, SD rats; details: BaCl2 4 mg/kg, within 60 min, n=10
Method: 50 male SD rats, weighing (236.7±13.7)g, were anaesthetized with 10% chloral hadrate 0.3 g/kg intraperitoneally, recorded ECG with intubating of external jugular vein administering drug. As soon as injected with BaCl2 4 mg/kg, rats usually emerged VP and VT quickly and developed to be the steady and typical double-aspect arrhythmia. After immediately injected with drug or 0.5% CMC-Na into vein, recorded the time of recovering and maintaining sinus rhythm within 60 min as standard, and compared the function between five groups. […] Time of maintaining sinus rhythm was longer and acted more quickly than that of Amiodarone group.

[2] = tested on: acute renal failure of mice induced by endotoxin; test: Acute renal failure model induced by endotoxin; assay type: in vivo, NIH mice; details: drug 10 mg/kg i.p., endotoxin 0.06 g/kg, after five hours, n=10; for GSH-Px: mice kidney homogenate; for BUN / Cr: mice serum
Method: After five hours, blood of the mice was collected by removing eyes, assayed Blood Urea Nitrogen (BUN) and Creatinine (Cr) concentration of serum. One kidney of each […] was taken out and made 100 mL/L homogenate, assayed activity of Glutathione Peroxidase (GSH-Px) enzyme.

[3] = tested on: myocardium injury model of rats induced by ISO; test: Myocardium injury (myocardial ischemia) model of rats induced by ISO; assay type: in vivo, SD rats; details: drug 0.76 mg/kg, n=8; for Σ ST: rats, ISO s.c.
Method: SD rats were measured ECG by chest leads before experiment, abandoned those of abnormal or arrhythmia at T wave, ST sect. […] They were divided into four groups according to Table 4, eight rats in each group. As dose of Table 4, tested compounds or 0.5% CMC-Na solution with same volume were administered through duodenum for 30 minutes, rats were anaesthetized with aether. After ECG was recorded, Isoproterenol (ISO) was administered by subcutaneous injection from the back, recorded ECG again after 30 minutes. After specimen was intragastricly granted for 24 hours and 48 hours, every group was administered simples again and recorded ECG again in terms of the methods stated above. After 72 hours, bleeding from the ophthalmic venous plexus and separated blood serum through centrifugation. Killed the rats, scissor the tip of the heart to prepare 10% myocardial tissue homogenate with 4° C. physiological saline as standby.
Measured each rat's value of ST before first administering ISO. And after first, second and third subcutaneous injection for 30 minutes, calculated mv mean value of ΣST as guide line of myocardium injury and performed t test.
The changes of MDA LDH and CK in serum were measured with agent kits.
The changes of MDA, LDH and CK in serum and myocardial tissue homogenate were measured with agent kits.

[4] = tested on: osteoporosis model of rats induced by Retinoic acid; test: Osteoporosis model of rats induced by Retinoic acid; assay type: in vivo, SD rats; details: Retinoic acid 70 mg/kg, specimen orally 30 days (dose not given), right thighbone, n=8
Source text: After continuously administering specimen for 30 days, killed rats and took right thighbone of rat.
Took same part tissue of right thighbone, routinely decalcified, enveloped with olefin, and dyed with HE. Observed with ordinary optics microscope, import all imagines into computer with A/D conversion of pickup camera, via dealing with image analysis software obtained index of guide line as follows: relative bone volume, indicating percentage that bone trabecula accounted for medullary cavity, 1.25×10×4 times; average width of bone trabecula, 1.25×10×10 times; amount of cell per area in bone trabecula, gathering same area image (640×480) of bone trabecula with image analysis software, calculating amount of bone cell in corresponding area, 1.25×10×40 times; Average length of bone cell lacuna, 1.25×10×40; Average width of bone cell lacuna, 1.25×10×40. The above five indexes of static state guide-line were all observed for ten eyeshots, calculating their average value.

[5] = tested on: thymus and spleen of mice; test: Indexes of thymus and spleen of mice injected with cyclophosphamide; assay type: in vivo, NIH mice; details: cyclophosphamide 60 mg/kg i.p., drug 10 mg/kg intragastric for 30 days, n=10
Method: Chose 90 healthy NIH mice, weighing (18˜22)g, equal amount of male and female. Every mouse was injected with cyclophos phamide (60 mg/kg, intraperitoneally). […] Administered specimen through intragastric intubation in terms of the dose in Table 8. Continuously administered orally specimen for 30 days, all mice fasted on the 30th day, but were supplied with water. On the 31th day, mice of every group were killed. Weighed their body, thymus and spleen, calculated index of thymus and spleen, compared the difference among each group.

[6] = tested on: cerebral ischemia-reperfusion injury of mice; test: Memory step-through test after cerebral ischemia-reperfusion injury; assay type: in vivo, NIH mice; details: 4.5 mg/kg intragastric once a day for 10 days, n=10
Method: After weighed, NIH mice were anaesthetized with Penbotarbital 60 mg/kg, then performed operation. Fixed at supine position, the skin in the middle of the deck was dissected about 7 mm. Separated common carotid artery of two sides of neck, surrounded with the thread of No “0”. Common carotid artery of two sides was chipped with artery clip for 2 minutes to induce cerebral ischemia. In the end of ischemia treatment, artery clip was loosed and blood perfusion was restored, rest for five minutes, repeated twice as that. After blocking blood flow of carotid, sutured incision. Recorded trail bloodletting, bloodletting quantity was no more than 10% of total blood quantity. After operation, […] were administered with proper physiological saline through intraperitoneal injection in order to supple capacity of blood. After pseudo operation group was anaesthetized, carotid of two sides was separated but blood flow was not blocked, without being bloodletting too.
In experiment appearance of body temperature lowering and righting reflex disappearing was as positive guide-line of ischemia, discarding those without typical guide line of ischemia. In the procedure of ischemia or after operation, some of animals would be dead. […] According to the dose of Table 7, animals were administered with medicine by intragastric intubation once a day, and continue administered drug for 10 days. After 10 days, memory test was performed.

[7] = myocardial tissue homogenate of rats with ISO myocardium injury
[8] = serum of rats with ISO myocardium injury, after 72 hours

## butanediol-disulphonic acid-(5-androsten-17-one-3β-ol)-diester [Compound I]
[1]; drug 0.5 mg/kg into vein
  time of maintaining sinus rhythm: 45.478 ± 5.271 min
  time of storing sinus rhythm: 6.752 ± 4.132 min
[2]
  GSH-Px: 37.6 ± 15.1 nU · L^−1
  BUN: 344.4 ± 40.6*** 10 mg · L^−1
  Cr: 34.41 ± 9.65*** 10 mg · L^−1
[3]; [7]
  Activity of CK: 214.27 ± 40.62 U/L
  Activity of LDH: 159.82 ± 31.69 U/L
  MDA: 115.02 ± 10.34 nmol/g
[3]; 30 min
  Σ ST: 0.49 ± 0.12 mv
[3]; 24 h
  Σ ST: 0.54 ± 0.12 mv
[3]; 48 h
  Σ ST: 0.50 ± 0.06 mv
[3]; 72 h
  Σ ST: 0.54 ± 0.08 mv
[3]; [8]
  Activity of CK: 242.14 ± 22.72 U/L
  Activity of LDH: 233.35 ± 18.46 U/L
  MDA: 24.64 ± 2.53 nmol/mL
[4]
  Amount of cell per area in bone trabecula: 31.84 ± 3.94
  Average width of bone trabecula: 61.37 ± 4.71 μm
  Relative bone volume: 29.84 ± 3.56 %
[5]
  Index of spleen: 69.60 ± 16.10 mg/10 g body weight
  Index of thymus: 16.44 ± 3.25 mg/10 g body weight
[6]
  Latency of dark cabin, Memory: 46.5 ± 13.8 s
  Latency of dark cabin, Study: 25.7 ± 14.8 s
  Number of error: 3.1 ± 1.7 n

## pentanediol-disulphonic acid-(5-androsten-17-one-3β-ol)-diester [Compound J]
[1]; drug 1.5 mg/kg into vein
  time of maintaining sinus rhythm: 51.762 ± 6.275 min
  time of storing sinus rhythm: 3.584 ± 2.471 min
[1]; drug 2.5 mg/kg into vein
  time of maintaining sinus rhythm: 59.248 ± 1.527 min
  time of storing sinus rhythm: 0.845 ± 1.529 min
[2]
  GSH-Px: 32.2 ± 13.1 nU · L^−1
  BUN: 337.6 ± 32.8*** 10 mg · L^−1
  Cr: 37.60 ± 8.44*** 10 mg · L^−1
[3]; [7]
  Activity of CK: 268.28 ± 42.59 U/L
  Activity of LDH: 197.45 ± 26.88 U/L
  MDA: 95.67 ± 15.67 nmol/g
[3]; 30 min
  Σ ST: 0.54 ± 0.12 mv
[3]; 24 h
  Σ ST: 0.52 ± 0.07 mv
[3]; 48 h
  Σ ST: 0.56 ± 0.07 mv
[3]; 72 h
  Σ ST: 0.54 ± 0.08 mv
[3]; [8]
  Activity of CK: 239.40 ± 16.15 U/L
  Activity of LDH: 257.05 ± 31.30 U/L
  MDA: 26.47 ± 3.25 nmol/mL
[4]
  Amount of cell per area in bone trabecula: 29.84 ± 3.16
  Average width of bone trabecula: 67.84 ± 4.68 μm
  Relative bone volume: 37.55 ± 3.26 %
[5]
  Index of spleen: 61.29 ± 15.34 mg/10 g body weight
  Index of thymus: 17.24 ± 3.34 mg/10 g body weight
[6]
  Latency of dark cabin, Memory: 52.0 ± 17.2 s
  Latency of dark cabin, Study: 30.8 ± 15.0 s
  Number of error: 3.2 ± 1.6 n
